Read-outs that look alike come from different tables or passages of the source.

Data on 16 compounds can be found in US20260042772A1, “FURO PYRIMIDINE DERIVATES” (Merck Patent GmbH, priority 2022, published 2026).

Assay [1] relates to sensitive (NF54) strains of P. falciparum. In words: In vitro P. falciparum assay, modified [3H]hypoxanthine incorporation assay. Format: cell-based. Particulars: Plasmodium falciparum, NF54 strain. An excerpt:
Compounds according to the present invention were screened against sensitive (NF54) strains of P. falciparum in vitro using the modified [3H]hypoxanthine incorporation assay. (Vennerstrom, J. L.; Arbe-Barnes, S.; Brun, R.; Charman, S. A.; Chiu, F. C. K.; Chollet, J.; Dong, Y.; Dorn, A.; Hunziker, D.; Matile, H.; McIntosh, K.; Padmanilayam, M.; Tomas, J. S.; Scheurer, C.; Scorneaux, B.; Tang, Y.; Urwyler, H.; Wittlin, S. and Charman, W. N. Identification of an Antimalarial Synthetic Trioxolane Drug Development Candidate. Nature, 2004, 430, 900-904.).
Compound concentrations at which growth of P. falciparum was inhibited by 50% compared to untreated controls was measured in nM (IC50).
Compound concentrations at which growth of P. falciparum was inhibited by 50% compared to untreated controls was measured in nM (IC50) as described above (PfNF54 IC50 (nM)).

Assay [2] has as its system P. vivax liver-stage schizonts. In words: In vitro P. vivax liver-stage assay in primary human hepatocytes, radical cure mode: schizonts. Particulars: Plasmodium vivax, Hepatocyte, infected primary human hepatocytes, read-out: Pv Schizont IC50. Format: cell-based. The protocol:
(§1) Compound efficacy against P. vivax liver-stage schizonts and hypnozoites is evaluated in infected primary human hepatocytes (PHHs). Compound screening is performed in 384-well plates, in a 12-point dose response, from 50 μM. All compounds are tested in radical cure mode (RCM). PHHs are seeded onto 384-well plates two days prior to P. vivax sporozoite infection. In RCM, compounds are added to the culture for three days, from day 5 post infection, in duplicate wells. Nigericin and a PI4K inhibitor (KDU691) are used as positive controls in each assay, while solvent (DMSO) without added compound serves as a negative control. Daily medium changes are performed, and the culture is fixed on day twelve post infection to ensure complete parasite clearance. Fixed cells are permeabilized and stained with an anti-UIS4 primary antibody and a fluorescent secondary antibody. Liver-stage schizonts and hypnozoites are then quantified by High Content Imaging. Roth, A., et al. A comprehensive model for assessment of liver stage therapies targeting Plasmodium vivax and Plasmodium falciparum. Nat. Commun. 2018, 9(1), 1837. doi.org/10.1038/s41467-018-04221-9.

In assay [3] the test system is P. vivax liver-stage hypnozoites. Put plainly: In vitro P. vivax liver-stage assay in primary human hepatocytes, radical cure mode: hypnozoites. Format: cell-based. Particulars: Plasmodium vivax, Hepatocyte, infected primary human hepatocytes, read-out: Pv Hypnozoite IC50. The protocol: as §1
The test system of assay [4] is chloroquine sensitive (CQS) strain (NF54) of P. falciparum. In words: In vitro antiplasmodial activity, Assay A (parasite lactate dehydrogenase assay). The class given is cell-based. The settings on record: Plasmodium falciparum. Put shortly:
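Asexual erythrocytic-stage cultures of the CQ-sensitive NF54 strain tested in triplicate on two occasions. Ten 2-fold dilutions from 3000 nM down to about 6 nM (references from 1000 ng/mL). Viability read by parasite lactate dehydrogenase assay.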

In assay [5] the test system is CQC sensitive strain (NF54) of P. falciparum. In words: In vitro antiplasmodial activity, Assay B (as described by Vennerstrom et al. 2004). Format: cell-based. The settings on record: Plasmodium falciparum; NF54, Vennerstrom et al. method. Put shortly:
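NF54 P. falciparum is exposed to 10-point, 2-fold serial dilutions in complete medium starting at 3000 nM (lowest about 6 nM). Reference drugs start at 1000 ng/mL.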

The target in the next assay is human PI4Kβ (HuPI4Kβ) (Homo sapiens (Human), UniProt Q9UBF8). In words: HuPI4Kβ lipid kinase inhibition, ADP-Glo Kinase Assay. Format: biochemical. Particulars: recombinant enzyme. The procedure:
To further test the impact of compounds according to the present invention on human PI4Kβ, HuP[…]β inhibition was tested for selected compounds and contrasted with the results for inhibiting PfNF54 strains as described in the example above. The lipid kinase reaction is performed by incubating lipid substrate (PI:3PS or PIP2:3PS) with a recombinant enzyme and ATP, and the kinase activity is measured using the ADP-GloTM Kinase Assay. First, the kinase reaction is terminated, and any ATP remaining after the reaction is depleted, leaving only ADP. Then the Kinase Detection Reagent is added to convert ADP to ATP, which is used in a coupled luciferin/luciferase reaction. The luminescent output is measured and is correlated with kinase activity. The assays can be performed in 96- or 384-well plates and can be used for enzyme characterization, inhibitor screening or compound profiling. Results measuring the effect of compounds on HuP[…]β are reported in table 2 in nM (IC50) describing the concentration necessary to inhibit 50% of the enzyme's activity (HuP[…]β IC50 (nM)).
(In general: In ADP-Glo the light output rises with the ADP produced.)

The mark [6] stands for this setting: [3H]hypoxanthine incorporation, read-out: In vitro P. falciparum growth inhibition IC50.
Where [7] appears, read: growth inhibition, Table 2, read-out: PfNF54 IC50.

Sequence of human PI4Kβ (HuPI4Kβ) (Q9UBF8 whole entry): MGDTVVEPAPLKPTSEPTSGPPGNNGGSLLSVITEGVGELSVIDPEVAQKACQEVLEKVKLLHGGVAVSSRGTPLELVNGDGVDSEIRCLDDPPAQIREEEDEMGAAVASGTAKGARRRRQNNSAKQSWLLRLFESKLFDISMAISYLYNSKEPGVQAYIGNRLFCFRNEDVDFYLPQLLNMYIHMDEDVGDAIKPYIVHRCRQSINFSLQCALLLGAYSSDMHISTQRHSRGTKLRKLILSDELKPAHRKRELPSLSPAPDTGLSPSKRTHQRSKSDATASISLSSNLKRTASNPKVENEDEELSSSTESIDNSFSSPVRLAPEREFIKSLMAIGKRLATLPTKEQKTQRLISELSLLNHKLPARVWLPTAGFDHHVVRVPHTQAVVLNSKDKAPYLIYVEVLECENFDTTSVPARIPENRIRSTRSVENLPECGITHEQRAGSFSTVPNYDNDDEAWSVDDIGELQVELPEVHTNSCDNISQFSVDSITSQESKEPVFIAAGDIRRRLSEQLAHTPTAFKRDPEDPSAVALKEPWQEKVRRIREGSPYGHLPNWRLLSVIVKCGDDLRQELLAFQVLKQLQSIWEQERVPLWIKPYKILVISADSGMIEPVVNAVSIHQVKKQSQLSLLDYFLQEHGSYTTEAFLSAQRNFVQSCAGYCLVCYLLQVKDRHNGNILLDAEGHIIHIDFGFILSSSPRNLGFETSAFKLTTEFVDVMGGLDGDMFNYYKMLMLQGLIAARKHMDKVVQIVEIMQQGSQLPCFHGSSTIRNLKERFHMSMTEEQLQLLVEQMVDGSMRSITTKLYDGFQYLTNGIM

`CC(C)(O)c1cc(-c2ncnc3cc(-c4ccc(S(C)(=O)=O)cc4)oc23)ccn1` [Compound D213, 2-(4-(6-(4-(methylsulfonyl)phenyl)furo [3,2-d]pyrimidin-4-yl)pyridin-2-yl)propan-2-ol]: the IC50 (usually the point on the concentration scale where inhibition reaches its midpoint) is 10 to 50 nM in assay [1] (setting [6]), less than 15 nM in assay [2] and greater than 50 nM in assay [3].

Regarding `CC(C)(O)c1cccc(-c2ncnc3cc(-c4ccc(C(=O)N5C[C@@H]6C[C@H]5CO6)cc4)oc23)c1F` [Compound D197, ((1S,4S)-2-oxa-5-azabicyclo[2.2.1]heptan-5-yl)(4-(4-(2-fluoro-3-(2-hydroxypropan-2-yl)phenyl)furo[3,2-d]pyrimidin-6-yl)phenyl)methanone], the IC50 in assay [4] was less than 15 nM; in assay [1] (setting [6]), less than 10 nM; in assay [1] (setting [7]), less than 10 nM; in assay [5] it was less than 15 nM; at human PI4Kβ (HuPI4Kβ), 100 to 500 nM.

Regarding `CC(C)(O)c1cccc(-c2ncnc3cc(-c4ccc(C(=O)O)cc4)oc23)c1F` [Compound D201, 4-(4-(2-fluoro-3-(2-hydroxypropan-2-yl)phenyl)furo[3,2-d]pyrimidin-6-yl)benzoic acid], the IC50 in assay [4] is 15 to 50 nM; in assay [5], 15 to 50 nM; in assay [2] it was less than 15 nM; in assay [3], 15 to 50 nM.

Turning to `C[C@@H]1CN(C(=O)c2ccc(-c3cc4ncnc(-c5ccnc(C(C)(C)O)c5)c4o3)cc2)C[C@H](C)O1` [Compound C76, 2-[4-(6-{4-[(2R,6S)-2,6-dimethylmorpholine-4-carbonyl]phenyl}furo[3,2-d]pyrimidin-4-yl)pyridin-2-yl]propan-2-ol], the figures for the 50% inhibitory concentration (IC50) (in assay [1] (setting [7]); on human PI4Kβ (HuPI4Kβ)) were less than 10 nM and greater than 500 nM, respectively.

Consider `CN1CCN(C(=O)c2ccc(-c3cc4ncnc(-c5ccnc(C(C)(C)O)c5)c4o3)cc2)CC1` [Compound C77, 2-(4-{6-[4-(4-methylpiperazine-1-carbonyl)phenyl]furo[3,2-d]pyrimidin-4-yl}pyridin-2-yl)propan-2-ol], for which the IC50 was 10 to 50 nM in assay [1] (setting [7]) and greater than 500 nM at human PI4Kβ (HuPI4Kβ).

In the case of `CC(C)(O)c1cccc(-c2ncnc3cc(-c4ccc([S@](C)(=N)=O)cc4)oc23)c1F` [Compound D210, (R)-(4-(4-(2-fluoro-3-(2-hydroxypropan-2-yl)phenyl)furo[3,2-d]pyrimidin-6-yl)phenyl)(imino)(methyl)-λ^6-sulfanone], the figures for the IC50 in assay [4] and in assay [1] (setting [6]) were less than 15 nM and less than 10 nM, respectively.

Regarding `CC(C)(O)c1cccc(-c2ncnc3cc(-c4ccc(C(=O)N5CCOCC5)cc4)oc23)c1F` [Compound D183, (4-(4-(2-fluoro-3-(2-hydroxypropan-2-yl)phenyl)furo[3,2-d]pyrimidin-6-yl)phenyl)(morpholino) methanone], the IC50 is less than 15 nM in assay [4]; less than 10 nM in assay [1] (setting [6]); less than 10 nM in assay [1] (setting [7]); less than 15 nM in assay [5]; less than 15 nM in assay [2]; less than 15 nM in assay [3]. Moreover, the IC50 on human PI4Kβ (HuPI4Kβ) fell in the range of 100 to 500 nM.

Take `CC(C)(O)c1cc(-c2ncnc3cc(-c4ccc(S(C)(=O)=O)cc4)oc23)cc(F)n1` [Compound D150, 2-(6-fluoro-4-(6-(4-(methylsulfonyl)phenyl)furo [3,2-d]pyrimidin-4-yl)pyridin-2-yl)propan-2-ol]: the values for the IC50 in assay [4], in assay [1] (setting [6]) and in assay [5] were greater than 50 nM, 10 to 50 nM and 15 to 50 nM, respectively.

For `CC(C)(O)c1cccc(-c2ncnc3cc(-c4ccc([S@@](C)(=N)=O)cc4)oc23)c1F` [Compound D209, (S)-(4-(4-(2-fluoro-3-(2-hydroxypropan-2-yl)phenyl)furo[3,2-d]pyrimidin-6-yl)phenyl)(imino)(methyl)-λ^6-sulfanone], the values for the IC50 in assay [4] and in assay [1] (setting [6]) were less than 15 nM and less than 10 nM, respectively.

Turning to `C[C@@H]1COCCN1C(=O)c1ccc(-c2cc3ncnc(-c4ccnc(C(C)(C)O)c4)c3o2)cc1` [Compound C75, (4-{4-[2-(1-Hydroxy-1-methyl-ethyl)-pyridin-4-yl]-furo[3,2-d]pyrimidin-6-yl}-phenyl)-((R)-3-methyl-morpholin-4-yl)-methanone], the results for the IC50 (in assay [1] (setting [7]); at human PI4Kβ (HuPI4Kβ)) were less than 10 nM and greater than 500 nM, respectively.

As to `CC(C)(O)c1cccc(-c2ncnc3cc(-c4ccc(S5(=O)=NCCCC5)cc4)oc23)c1F` (stereo not drawn) [Compound D211, 1-(4-(4-(2-fluoro-3-(2-hydroxypropan-2-yl)phenyl)furo[3,2-d]pyrimidin-6-yl)phenyl)-3,4,5,6-tetrahydro-1,2-thiazine 1-oxide], the 50% inhibitory concentration (IC50) in assay [1] (setting [6]) was less than 10 nM.

Consider `CC(C)(O)c1cc(-c2ncnc3cc(-c4ccc(C(=O)N5CCOCC5)cc4)oc23)ccn1` [Compound C74, (4-{4-[2-(1-Hydroxy-1-methyl-ethyl)-pyridin-4-yl]-furo[3,2-d]pyrimidin-6-yl}-phenyl)-morpholin-4-yl-methanone], for which the IC50 in assay [1] (setting [7]) was 10 to 50 nM; on human PI4Kβ (HuPI4Kβ) it was greater than 500 nM.

Take `CN1CCN(C(=O)c2ccc(-c3cc4ncnc(-c5cccc(C(C)(C)O)c5F)c4o3)cc2)CC1` [Compound D204, (4-(4-(2-fluoro-3-(2-hydroxypropan-2-yl)phenyl)furo[3,2-d]pyrimidin-6-yl)phenyl)(4-methylpiperazin-1-yl)methanone]: the IC50 in assay [1] (setting [6]) was less than 10 nM; in assay [5], less than 15 nM.

On to `CC(C)(O)c1cccc(-c2ncnc3cc(-c4ccc(S(C)(=N)=O)cc4)oc23)c1F` (stereo not drawn) [Compound D203, (4-(4-(2-fluoro-3-(2-hydroxypropan-2-yl)phenyl)furo[3,2-d]pyrimidin-6-yl)phenyl)(imino)(methyl)-λ6-sulfanone], for which the 50% inhibitory concentration (IC50) in assay [4] is less than 15 nM; in assay [1] (setting [6]), less than 10 nM; in assay [5] it was less than 15 nM; in assay [2] it was less than 15 nM; in assay [3], 15 to 50 nM.

`CC(C)(O)c1cccc(-c2ncnc3cc(-c4ccc(S(C)(=O)=O)cc4)oc23)c1F` [Compound D149, 2-(2-fluoro-3-(6-(4-(methylsulfonyl)phenyl)furo [3,2-d]pyrimidin-4-yl)phenyl)propan-2-ol]: the IC50 in assay [4] is less than 15 nM; in assay [1] (setting [6]), less than 10 nM; in assay [1] (setting [7]) it was less than 10 nM; in assay [5], less than 15 nM; in assay [2], less than 15 nM; in assay [3] it was less than 15 nM. Also, the IC50 on human PI4Kβ (HuPI4Kβ) fell in the range of 100 to 500 nM.

For `CC(C)(O)c1cccc(-c2ncnc3cc(-c4ccc(S5(=O)=NCCC5)cc4)oc23)c1F` (stereo not drawn) [Compound D212, 1-(4-(4-(2-fluoro-3-(2-hydroxypropan-2-yl)phenyl)furo[3,2-d]pyrimidin-6-yl)phenyl)-4,5-dihydro-3H-isothiazole 1-oxide], the results for the IC50 in assay [4] and in assay [1] (setting [6]) were less than 15 nM and less than 10 nM, respectively.
